From ChEMBL document CHEMBL1145689, “Phospholipase A 2 Inhibitors from an Erythrina Species from Samoa” (J Nat Prod, 1997)

Molecular target: Phospholipase A2 (Homo sapiens, UniProt P04054)
Experiment: Inhibition of PLA2 in fMLP and A23187 ionophore-stimulated human HL60 cells assessed as effect on [3H]arachidonic acid release
Format: cell-based
Conditions: hl-60

Sequence of Phospholipase A2 (P04054 whole entry): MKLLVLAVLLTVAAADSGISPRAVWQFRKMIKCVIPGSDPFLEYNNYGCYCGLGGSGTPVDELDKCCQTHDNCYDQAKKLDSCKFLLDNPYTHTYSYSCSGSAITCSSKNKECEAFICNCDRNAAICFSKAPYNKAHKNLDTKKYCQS

CC(C)=CCc1cc([C@@H]2CC(=O)c3c(O)cc(O)cc3O2)cc(CC=C(C)C)c1O [ABYSSINONE V]
IC50: 6 µM

CC(C)=CCc1cc2c(cc1O)OCc1c-2oc2c(CC=C(C)C)c(O)ccc12 [ERYCRYSTAGALLIN]
IC50: 3 µM

CC(C)=CCc1cc(C2CC(=O)c3c(cc(O)c(CC=C(C)C)c3O)O2)cc(CC=C(C)C)c1O (stereo not drawn)
IC50: 10 µM
